According to patent publication US20230255953A1, “USE OF ROLUPERIDONE IN PREVENTING RELAPSE IN SCHIZOPHRENIA PATIENTS” (Minerva Neurosciences, Inc., priority 2022, published 2023):

What was measured:
[1] = test system: patients with negative symptoms of schizophrenia; assay: Study #2 (MIN-101C07): safety and tolerability (TEAEs, QT); type: in vivo, human; conditions: for Incidence of TEAEs: DB period
Text: (§1) Study #2 (also referred to as “MIN101C07”) was a Phase 3, randomized, DB, placebo-controlled, parallel-group 12-week study to evaluate the efficacy and safety of Roluperidone in patients ≥18 years to ≤55 years with negative symptoms of schizophrenia, followed by a 40-week OL extension. The study consisted of a pretreatment screening period of up to 28 days (including an antipsychotic medication washout period), a 12-week, DB, placebo-controlled period, and a 40-week OL period. Eligible patients (with moderate to severe negative symptoms of schizophrenia and stable positive symptoms but without severe symptoms of suspiciousness, agitation, hostility, uncooperativeness, or poor impulse control) were randomized 1:1:1 to receive Roluperidone 32 mg QD, Roluperidone 64 mg QD (GR01/B formulation, see U.S. Pat. No. 11,464,744), or placebo, orally, for 12 weeks. […] During the 40-week OL treatment extension, patients who were initially randomized to Roluperidone 32 mg or 64 mg continued treatment with the same dose, while patients who were initially randomized to placebo crossed over to Roluperidone 32 mg or 64 mg in a 1:1 ratio.
The incidence of TEAEs was slightly higher in the Roluperidone groups than in the placebo group during the DB period (42% in the 32 mg Roluperidone group, 37% in the 64 mg Roluperidone group, and 33% in the placebo group). The majority of TEAEs reported were in the System Organ Class (SOC) psychiatric disorders. The most commonly reported TEAEs were insomnia, schizophrenia, anxiety, agitation, and headache. […] In total, 6 patients met stopping criteria due to QT prolongations, and 4 of these 6 patients were discontinued from the study due to such prolongations. The remaining 2 patients were discontinued for other reasons prior to confirming their QT prolongations.

[2] = test system: patients with negative symptoms of schizophrenia; assay: Study #2 (MIN-101C07): Personal and Social Performance (PSP); type: in vivo, human; design: key to PSP total score, LS mean difference vs placebo in change from Baseline / Mean change in PSP Total score from Active Baseline / Change from Baseline LS Mean: PSP Total Score (ITT) / Change from Baseline LS Mean: PSP Total Score (mITT): PSP Total score points (1–100 scale, higher = better functioning); conditions: for Change from Baseline LS Mean: PSP Total Score (ITT) / Change from Baseline LS Mean: PSP domain Disturbing and Aggressive Behaviors / Change from Baseline LS Mean: PSP domain Personal and Social Relationships / Change from Baseline LS Mean: PSP domain Self-Care / Change from Baseline LS Mean: PSP domain Socially Useful Activities / Effect Size (Cohen's d) vs Placebo: PSP Total Score (ITT) / Effect Size (Cohen's d) vs Placebo: PSP domain Disturbing and Aggressive Behaviors / Effect Size (Cohen's d) vs Placebo: PSP domain Personal and Social Relationships / Effect Size (Cohen's d) vs Placebo: PSP domain Self-Care / Effect Size (Cohen's d) vs Placebo: PSP domain Socially Useful Activities: ITT; for Mean change in PSP Total score from Active Baseline: Week 52, OL
Text: The PSP is a validated clinician-rated scale intended to reflect real-life situations that measures personal and social functioning in 4 domains: (a) socially useful activities, (b) personal and social relationships, (c) self-care, and (d) disturbing and aggressive behaviors. The score is based on the assessment of a patient's performance in the 4 domains. The PSP Total score is a single measurement of functioning ranging from 1 to 100, where a higher score represents better functioning. A score of 91 to 100 indicates excellent functioning in all 4 main areas; the patient is held in high consideration for their good qualities, copes adequately with life problems, and is involved in a wide range of interests and activities. A score of 1 to 10 indicates a lack of autonomy in basic functioning with extreme behaviors but without survival risk (score 6 to 10) or with survival risk (score 1 to 5). […] Review of the relevant scientific literature and the analysis of the psychometric properties of the 4 domains that result in the generation of the PSP Total score were supportive of the appropriateness and cross-cultural applicability of the use of the PSP in drug development for the indication of negative symptoms of schizophrenia The PSP was assessed at the timepoints described in Table 6. The changes from Baseline in the PSP Total score and individual domain scores after 12 weeks of treatment were exploratory efficacy endpoints in Study MIN-101C03, and the Total score was the key secondary efficacy endpoint and the PSP domain scores were exploratory endpoints in Study MIN-101C07.
as §1

Substance: 1H-Isoindol-1-one,2-[ [1-[2-(4-fluorophenyl)-2-oxoethyl]-4-piperidinyl]methyl]-2,3-dihydro-, hydrochloride, hydrate (1:1:2) [Roluperidone]
- Change in safety laboratory parameters, including prolactin [1]: no significant change
- Change in vital signs, including weight and waist circumference [1]: no significant change
- Incidence of TEAEs ([1]; 32 mg): 42%
- Incidence of TEAEs ([1]; 64 mg): 37%
- Tolerability ([1]; 32 and 64 mg): generally well tolerated
- Patients who met stopping criteria due to QT prolongations ([1]; in total): 6 patients
- QT prolongation ([1]; majority of clinically significant prolongations with 64 mg): Dose-related QT prolongation was observed
- Patients discontinued from the study due to QT prolongations ([1]; of the 6 meeting stopping criteria): 4 patients
- Effect Size (Cohen's w) vs Placebo: 7-Point improvement in PSP Total Score responders ([2]; 32 mg QD, Week 12 DB): 0.03
- Effect Size (Cohen's w) vs Placebo: 10-Point improvement in PSP Total Score responders ([2]; 32 mg QD, Week 12 DB): 0.01
- Number of Patients with 7-Point improvement in PSP Total Score at Week 12 ([2]; 32 mg QD, Week 12 DB): 37/116
- Number of Patients with 10-Point improvement in PSP Total Score at Week 12 ([2]; 32 mg QD, Week 12 DB): 26/116
- Patients with 7-Point improvement in PSP Total Score at Week 12 (%) ([2]; 32 mg QD, Week 12 DB): (32%)
- Patients with 10-Point improvement in PSP Total Score at Week 12 (%) ([2]; 32 mg QD, Week 12 DB): (22%)
- Change from Baseline LS Mean: PSP Total Score (ITT) ([2]; 32 mg QD, Week 12 DB): 4.5
- Change from Baseline LS Mean: PSP domain Disturbing and Aggressive Behaviors ([2]; 32 mg QD, Week 12 DB): 0.0
- Change from Baseline LS Mean: PSP domain Personal and Social Relationships ([2]; 32 mg QD, Week 12 DB): −0.4
- Change from Baseline LS Mean: PSP domain Self-Care ([2]; 32 mg QD, Week 12 DB): −0.4
- Change from Baseline LS Mean: PSP domain Socially Useful Activities ([2]; 32 mg QD, Week 12 DB): −0.3
- Effect Size (Cohen's d) vs Placebo: PSP Total Score (ITT) ([2]; 32 mg QD, Week 12 DB): 0.07
- Effect Size (Cohen's d) vs Placebo: PSP domain Disturbing and Aggressive Behaviors ([2]; 32 mg QD, Week 12 DB): 0.00
- Effect Size (Cohen's d) vs Placebo: PSP domain Personal and Social Relationships ([2]; 32 mg QD, Week 12 DB): 0.15
- Effect Size (Cohen's d) vs Placebo: PSP domain Self-Care ([2]; 32 mg QD, Week 12 DB): 0.15
- Effect Size (Cohen's d) vs Placebo: PSP domain Socially Useful Activities ([2]; 32 mg QD, Week 12 DB): 0.02
- Change from Baseline LS Mean: PSP Total Score (mITT) ([2]; 32 mg QD, Week 12 DB): 4.4
- Effect Size (Cohen's d) vs Placebo: PSP Total Score (mITT) ([2]; 32 mg QD, Week 12 DB): 0.07
- Effect Size (Cohen's w) vs Placebo: 7-Point improvement in PSP Total Score responders ([2]; 64 mg QD, Week 12 DB): 0.13
- Effect Size (Cohen's w) vs Placebo: 10-Point improvement in PSP Total Score responders ([2]; 64 mg QD, Week 12 DB): 0.10
- Number of Patients with 7-Point improvement in PSP Total Score at Week 12 ([2]; 64 mg QD, Week 12 DB): 50/122
- Number of Patients with 10-Point improvement in PSP Total Score at Week 12 ([2]; 64 mg QD, Week 12 DB): 37/122
- Change from Baseline LS Mean: PSP Total Score (ITT) ([2]; 64 mg QD, Week 12 DB): 6.1
- Change from Baseline LS Mean: PSP domain Disturbing and Aggressive Behaviors ([2]; 64 mg QD, Week 12 DB): 0.0
- Change from Baseline LS Mean: PSP domain Personal and Social Relationships ([2]; 64 mg QD, Week 12 DB): −0.3
- Change from Baseline LS Mean: PSP domain Self-Care ([2]; 64 mg QD, Week 12 DB): −0.3
- Change from Baseline LS Mean: PSP domain Socially Useful Activities ([2]; 64 mg QD, Week 12 DB): −0.4
- Effect Size (Cohen's d) vs Placebo: PSP Total Score (ITT) ([2]; 64 mg QD, Week 12 DB): 0.27
- Effect Size (Cohen's d) vs Placebo: PSP domain Disturbing and Aggressive Behaviors ([2]; 64 mg QD, Week 12 DB): −0.07
- Effect Size (Cohen's d) vs Placebo: PSP domain Personal and Social Relationships ([2]; 64 mg QD, Week 12 DB): 0.00
- Effect Size (Cohen's d) vs Placebo: PSP domain Self-Care ([2]; 64 mg QD, Week 12 DB): 0.04
- Effect Size (Cohen's d) vs Placebo: PSP domain Socially Useful Activities ([2]; 64 mg QD, Week 12 DB): 0.18
- Change from Baseline LS Mean: PSP Total Score (mITT) ([2]; 64 mg QD, Week 12 DB): 6.2
- Effect Size (Cohen's d) vs Placebo: PSP Total Score (mITT) ([2]; 64 mg QD, Week 12 DB): 0.29
- PSP total score, LS mean difference vs placebo in change from Baseline ([2]; 64 mg, Week 12, ITT): 2.2
- PSP Total score, course in OL period ([2]; OL period): continued improvement was seen
- Mean change in PSP Total score from Active Baseline ([2]; placebo to 32 mg group): 11.7
- Mean change in PSP Total score from Active Baseline ([2]; placebo to 64 mg group): 11.8
